Measured values reported in patent US20230010958A1, “CANNABINOID AND LYCOPENE ANTI-INFLAMMATORY SYNERGISTIC COMBINATIONS” (LYCORED LTD., priority 2019, published 2023).

What was measured:
[1] = system: nitric oxide (NO) production; experiment: NO production assay in LPS-stimulated peritoneal macrophages (Griess reagent); assay type: cell-based, mice; conditions: CBD alone, 0.05 µM to 50 µM (FIG. 1)
Procedure: Macrophage isolation and cell culture - Peritoneal macrophages were collected from the peritoneal cavity of 6-8-week-old male ICR mice (Harlan, Israel) given an intraperitoneal injection of 1.5 ml of thioglycollate broth (4%) 4 days before harvest. Peritoneal macrophages were washed three times with PBS and if needed a hypotonic lysis of erythrocytes was performed, yielding 90-95% purity. The macrophages were identified by fluorescence-activated cell sorting (FACS) analysis using FITC-conjugated rat antimouse F4/80 (MCA497F; Serotec, Oxford, England) by flow microfluorimetry on FACS (Becton Dickinson, Mountain View, CA). For each sample, 10,000 light scatter-gated viable cells were analyzed. […]
To the control groups, appropriate volumes of DMSO (0.1-0.2%) were added. The percent inhibition of each experimental group was calculated comparatively to the relevant and corresponding control.
NO production assay —NO levels in supernatants of cell cultures were determined by assaying nitrite levels using Griess reagent and sodium nitrite as a standard.
Peritoneal macrophages were incubated with the compounds 1 h before addition of LPS and cultured overnight. NO production was determined in the supernatant of the cultures and the % of inhibition from untreated macrophages was determined. […]

Macrophages = experiment: MTT cell viability assay with CBD; assay type: cell-based; conditions: increasing CBD concentrations (FIG. 2)
Procedure: FIG. 2 includes a vertical bar graph showing the effect of CBD on cell viability. MTT assay was performed in the presence of increasing CBD concentrations.
The inventors initially examined the sole effect of cannabidiol (CBD) on nitric oxide (NO) production. Macrophages were stimulated, and NO production was examined in the presence of increasing CBD concentrations, ranging from 0.05 µM to 50 µM.

nitric oxide (NO) = experiment: NO production in bone marrow derived macrophages treated with an inflammatory stimulus (lycopene, CBDA); assay type: cell-based; conditions: CBDA alone, 2.5 µM, 5 µM, 10 µM (FIG. 8A)
Procedure: Bone marrow derived macrophages were treated with an inflammatory stimulus in the presence of various concentration of lycopene, cannabidiolic acid (CBDA), tomato extract and hemp extract in vitro. As an inflammatory outcome, nitric oxide (NO) was monitored.
Full Study with test material and benchmarks - Cells were treated with tomato and hemp extract for 24 hours to determine viability. Cells were then treated as follows; (1) medium alone (unstimulated control), (2) LPS stimulation- 10 µg/mL, (3) each crude extracts (Tomato/Hemp) at concentration of IC50, (4) LPS + crude extracts, (5) control inhibitor, and (6) LPS + control inhibitor. The tomato and hemp extract and benchmarks (lycopene, CBDA) were tested in 5 different rations; 1:10, 1:5, 1:1, 5:1, 10:1.
Nitric oxide production was determined for each treatment.

| Compound | % of NO production inhibition [1] | CBD concentration toxic to the cells (cell viability, MTT) (Macrophages) | inhibition of NO production (nitric oxide (NO)) |
| --- | --- | --- | --- |
| C=C(C)[C@@H]1CCC(C)=C[C@H]1c1c(O)cc(CCCCC)cc1O [CBD, 2-[(6R)-3-Methyl-6-prop-l-en-2-yl-lcyclohex-2-envyl]-5pentylbenzene-l,3-diol] | increased in a CBD dose-dependent manner | ≥ 25 µM | – |
| C=C(C)[C@@H]1CCC(C)=C[C@H]1c1c(O)cc(CCCCC)c(C(=O)O)c1O [CBDA, cannabidiolic acid] | – | – | inhibits NO production in a dose dependent manner |
